Laboratory results as given in US8754032B2, “Concomitant pharmaceutical agents and use thereof” (Mitsubishi Tanabe Pharma Corporation, priority 2005, dated 2014).
Where two headings read alike, the source gives them in different places.

Key:
[1] = test system: ZF rats
[2] = test system: Zucker Fatty (ZF) rats; test: Oral carbohydrate loading test of Zucker Fatty rats: compound 3, voglibose and combination (plasma glucose and insulin); assay type: in vivo, rat
Source text: Four groups each containing 5 rats were formed. […] [table]

For `CN(C)C(=N)N=C(N)N` [metformin, reference compound], the “suppression of increase in plasma glucose after oral carbohydrate loading, as compared to the vehicle group” value (shortened to “suppression of increase”) ([1]; male ZF rats, overnight fasted, compound 3 0.3 mg/kg and/or metformin 50 mg/kg given 15 min before mixed carbohydrates 3.5 g/kg orally, area value over 120 min) was 13%.

`OCC(CO)N[C@H]1C[C@](O)(CO)[C@@H](O)[C@H](O)[C@H]1O` [voglibose, reference compound] was tested, and the “suppression of increase” value ([2]; male ZF rats, overnight fasted, compound 3 0.1 mg/kg and/or voglibose 0.1 mg/kg given 15 min before mixed carbohydrates 3.5 g/kg orally, area value over 60 min) was 34%.

With `Cc1cc(N2CCN([C@@H]3CN[C@H](C(=O)N4CCSC4)C3)CC2)n(-c2ccccc2)n1` [compound 3, 3-{(2S,4S)-4-[4-(3-methyl-1-phenyl-1H-pyrazol-5-yl)piperazin-1-yl]pyrrolidin-2-ylcarbonyl}thiazolidine] the “suppression of increase” value ([1]; rat, in vivo) was 33%, the “suppression of increase” value ([2]; rat, in vivo) was 33% and the “increase of plasma insulin concentration as compared to the vehicle group” value ([2]; rat, in vivo, po, 0.1 mg/kg) was “about 3 fold”.
